The text below walks through data of patent US20230265151A1, “GIP/GLP1 CO-AGONIST COMPOUNDS” (priority 2020, published 2023).

The structures appear in SMILES notation. Where two headings read alike, the source gives them in different places.

As usually defined, the Ki is the equilibrium dissociation constant of an inhibitor or competing ligand from its target. As a reminder, the Emax is the greatest response seen or fitted, relative to the assay's reference. What is called EC50 is the midpoint of the concentration-response curve.

In test [1] the target is T1, human GIP receptor (hGIPR) (Homo sapiens, UniProt P48546).
T1 construct: expressed in transfected cells; crude membranes
T1 sequence (P48546 22-466): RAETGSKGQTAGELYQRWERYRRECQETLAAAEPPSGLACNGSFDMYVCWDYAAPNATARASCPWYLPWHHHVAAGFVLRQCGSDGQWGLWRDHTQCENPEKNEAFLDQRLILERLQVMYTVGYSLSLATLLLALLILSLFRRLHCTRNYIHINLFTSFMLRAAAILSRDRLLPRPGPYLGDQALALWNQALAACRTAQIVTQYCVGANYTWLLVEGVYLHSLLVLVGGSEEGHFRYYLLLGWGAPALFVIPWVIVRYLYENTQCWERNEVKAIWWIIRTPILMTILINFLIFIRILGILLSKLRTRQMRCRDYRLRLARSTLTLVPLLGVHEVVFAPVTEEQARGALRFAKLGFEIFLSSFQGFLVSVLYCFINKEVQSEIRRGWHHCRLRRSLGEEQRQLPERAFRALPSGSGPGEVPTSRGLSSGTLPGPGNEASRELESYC
Put plainly: [125I]-GIP binding, SPA with membranes of CHO cells expressing hGIPR.

The next test deals with T2, hGIPR (Homo sapiens, UniProt P48546).
T2 construct: expressed in transfected cells
T2 sequence (P48546 22-466): T1 sequence (P48546 22-466)
The test is described as follows: Functional cAMP formation (HTRF) in HEK-293 clonal cells expressing hGIPR, 0.1% bovine casein, without or with 1.0% human serum albumin. It is filed as cell-based. The settings on record: for Emax: percent of maximal response to GIP(1-42)NH2. The method in brief: (§1)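 Readings of the HTRF 665/620 nm ratio, which falls as cAMP rises, were converted to nM cAMP using a standard curve after 30 min peptide exposure at 37° C.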

For another test, the target named is T3, hGCGR (Homo sapiens, UniProt P47871).
T3 construct: expressed in transfected cells
T3 sequence (P47871 26-477): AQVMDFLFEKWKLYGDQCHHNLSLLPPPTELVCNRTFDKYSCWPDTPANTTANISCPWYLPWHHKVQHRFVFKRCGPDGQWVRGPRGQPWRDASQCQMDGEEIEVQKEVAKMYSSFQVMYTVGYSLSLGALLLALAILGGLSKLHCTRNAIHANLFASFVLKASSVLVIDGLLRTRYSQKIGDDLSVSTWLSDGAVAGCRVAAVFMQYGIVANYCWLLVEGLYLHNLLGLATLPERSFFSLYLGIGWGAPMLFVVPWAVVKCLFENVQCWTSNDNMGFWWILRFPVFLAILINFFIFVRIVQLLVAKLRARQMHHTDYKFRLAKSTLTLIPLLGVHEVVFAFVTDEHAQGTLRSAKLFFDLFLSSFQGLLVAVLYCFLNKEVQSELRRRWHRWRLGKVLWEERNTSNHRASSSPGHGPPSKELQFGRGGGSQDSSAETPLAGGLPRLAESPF
The test is described as follows: Functional cAMP formation (HTRF) in HEK-293 clonal cells expressing hGCGR, 0.1% bovine casein, without or with 1.0% human serum albumin. It is filed as cell-based. The method, boiled down:
as §1

The target of a further test is hGLP-1R (Homo sapiens, UniProt P43220). Put plainly: Functional cAMP formation (HTRF) in HEK-293 clonal cells expressing hGLP-1R, 0.1% bovine casein, without or with 1.0% human serum albumin. It is filed as cell-based. Set-up: expressed in transfected cells. The settings on record: for Emax: percent of maximal response to GLP-1(7-36)NH2; for EC50: 37° C. The method, boiled down:
as §1
(cAMP levels reflect the balance of adenylyl cyclase and phosphodiesterase activity.)

Setting [2] is: HEK293, read-out: hGIPR Emax, % ± SEM, cAMP, 37° C., 0.1% bovine casein and 1.0% human serum albumin.
Where [3] appears, read: hGIPR EC50, nM (SEM, n), cAMP, 37° C., 0.1% bovine casein (no human serum albumin), geometric mean.
[4] abbreviates: hGCGR EC50, nM (SEM, n), cAMP, 37° C., 0.1% bovine casein (no human serum albumin), geometric mean.
Setting [5] is: hGCGR EC50, nM (SEM, n), cAMP, 37° C., 0.1% bovine casein and 1.0% human serum albumin, geometric mean (SEM, n).
The mark [6] stands for this setting: HEK293, read-out: hGLP-1R Emax, % ± SEM, cAMP, 37° C., 0.1% bovine casein, arithmetic mean.
[7] abbreviates: hGLP-1R EC50, nM (SEM, n), cAMP, 0.1% bovine casein (no human serum albumin), geometric mean.
The mark [8] stands for this setting: human GIPR, geometric mean (SEM, n), read-out: Binding Affinity Ki, nM (SEM, n) hGIPR.

Chain of hGLP-1R (P43220 24-463): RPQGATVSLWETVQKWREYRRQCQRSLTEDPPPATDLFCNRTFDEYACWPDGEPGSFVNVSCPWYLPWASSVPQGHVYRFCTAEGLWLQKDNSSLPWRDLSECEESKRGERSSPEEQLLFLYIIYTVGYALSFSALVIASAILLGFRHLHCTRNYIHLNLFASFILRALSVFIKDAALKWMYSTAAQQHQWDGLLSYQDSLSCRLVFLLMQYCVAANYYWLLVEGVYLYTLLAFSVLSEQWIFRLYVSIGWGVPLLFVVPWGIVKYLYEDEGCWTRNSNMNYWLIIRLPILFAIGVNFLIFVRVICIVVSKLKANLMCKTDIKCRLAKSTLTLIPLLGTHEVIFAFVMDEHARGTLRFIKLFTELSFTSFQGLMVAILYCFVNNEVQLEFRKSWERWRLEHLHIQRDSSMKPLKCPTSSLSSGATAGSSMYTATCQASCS

The compound `CC[C@H](C)[C@H](NC(=O)[C@H](CC(C)C)NC(=O)[C@](C)(Cc1ccc(O)cc1)NC(=O)[C@H](CCCCNC(=O)CCCCCNC(=O)COCCOCCNC(=O)CC[C@H](NC(=O)CCCCCCCCCOc1ccc(C(=O)O)cc1)C(=O)O)NC(=O)[C@@H](NC(=O)[C@H](Cc1ccccc1)NC(=O)[C@H](CCCN)NC(=O)C(C)(C)NC(=O)[C@H](CCC(N)=O)NC(=O)[C@H](C)NC(=O)[C@H](CCC(N)=O)NC(=O)[C@H](CCCN)NC(=O)[C@H](CC(=O)O)NC(=O)[C@H](CC(C)C)NC(=O)[C@](C)(CC(C)C)NC(=O)[C@@H](NC(=O)C(C)(C)NC(=O)[C@H](Cc1ccncc1)NC(=O)[C@H](CC(=O)O)NC(=O)[C@H](CO)NC(=O)[C@@H](NC(=O)[C@](C)(Cc1ccccc1F)NC(=O)[C@@H](NC(=O)CNC(=O)[C@H](CCC(=O)O)NC(=O)C(C)(C)NC(=O)[C@@H](N)Cc1ccc(O)cc1)[C@@H](C)O)[C@@H](C)O)[C@@H](C)CC)[C@@H](C)CC)C(=O)N[C@@H](CCCCNC(=O)CCCCCNC(=O)COCCOCCNC(=O)CC[C@H](NC(=O)CCCCCCCCCOc1ccc(C(=O)O)cc1)C(=O)O)C(=O)NCC(=O)NCC(=O)N1CCC[C@H]1C(=O)N[C@@H](CO)C(=O)N[C@@H](CO)C(=O)NCC(=O)N[C@@H](C)C(=O)N1CCC[C@H]1C(=O)N1CCC[C@H]1C(=O)N1CCC[C@H]1C(=O)N[C@@H](CO)C(N)=O` [Example 455] gave a Ki in test [1] of 0.0143 nM. In addition, the Emax at hGIPR (setting [2]) came to 91.8%; on hGLP-1R (setting [6]), 117%. Further, the 50% effective concentration (EC50) was 0.0146 nM at hGIPR (setting [3]), above 9950 nM at hGCGR (setting [4]), above 9950 nM at hGCGR (setting [5]) and 0.219 nM at hGLP-1R (setting [7]).

As to `CC[C@H](C)[C@H](NC(=O)[C@H](CC(C)C)NC(=O)[C@](C)(Cc1ccc(O)cc1)NC(=O)[C@H](CCCCNC(=O)COCCOCCNC(=O)COCCOCCNC(=O)CC[C@H](NC(=O)CCCCCCCCCCCCC(=O)O)C(=O)O)NC(=O)[C@@H](NC(=O)[C@H](Cc1ccccc1)NC(=O)[C@H](CCCN)NC(=O)C(C)(C)NC(=O)[C@H](CCC(N)=O)NC(=O)[C@H](C)NC(=O)[C@H](CCC(N)=O)NC(=O)[C@H](CCCN)NC(=O)[C@H](CC(=O)O)NC(=O)[C@H](CC(C)C)NC(=O)[C@](C)(CC(C)C)NC(=O)[C@@H](NC(=O)C(C)(C)NC(=O)[C@@H](NC(=O)[C@H](CC(=O)O)NC(=O)[C@H](CO)NC(=O)[C@@H](NC(=O)[C@](C)(Cc1ccccc1F)NC(=O)[C@@H](NC(=O)CNC(=O)[C@H](CCC(=O)O)NC(=O)C(C)(C)NC(=O)[C@@H](N)Cc1ccc(O)cc1)[C@@H](C)O)[C@@H](C)O)C(C)C)[C@@H](C)CC)[C@@H](C)CC)C(=O)N[C@@H](CCCCNC(=O)COCCOCCNC(=O)COCCOCCNC(=O)CC[C@H](NC(=O)CCCCCCCCCCCCC(=O)O)C(=O)O)C(=O)NCC(=O)NCC(=O)N1CCC[C@H]1C(=O)N[C@@H](CO)C(=O)N[C@@H](CO)C(=O)NCC(=O)N[C@@H](C)C(=O)N1CCC[C@H]1C(=O)N1CCC[C@H]1C(=O)N1CCC[C@H]1C(=O)N[C@@H](CO)C(N)=O` [Example 448], the Ki in test [1] (setting [8]) was 0.0314 nM. For the same compound, on hGIPR (HEK293, cAMP, 37° C., 0.1% bovine casein, arithmetic mean, read-out: hGIPR Emax, % ± SEM), the Emax was 105%. Also, the 50% effective concentration (EC50) at hGIPR (cAMP, 37° C., 0.1% bovine casein (no human serum albumin), geometric mean, read-out: hGIPR EC50, nM (SEM, n)) was 0.0164 nM; at hGIPR (cAMP, 37° C., 0.1% bovine casein and 1.0% human serum albumin, geometric mean (SEM, n), read-out: hGIPR EC50, nM (SEM, n)), 1.41 nM; on hGCGR (cAMP, 37° C., 0.1% bovine casein (no human serum albumin), geometric mean, read-out: hGCGR EC50, nM (SEM, n)), above 9950 nM; at hGCGR (cAMP, 37° C., 0.1% bovine casein and 1.0% human serum albumin, geometric mean (SEM, n), read-out: hGCGR EC50, nM (SEM, n)), above 9950 nM; on hGLP-1R (cAMP, 0.1% bovine casein (no human serum albumin), geometric mean, read-out: hGLP-1R EC50, nM (SEM, n)), 0.157 nM.

For `CCCCCCCCCCCCCCCC(=O)N[C@@H](CCC(=O)NCCOCCOCC(=O)NCCOCCOCC(=O)NCCCC[C@H](NC(=O)[C@H](CO)NC(=O)[C@@H]1CCCN1C(=O)[C@@H]1CCCN1C(=O)[C@@H]1CCCN1C(=O)[C@H](C)NC(=O)CNC(=O)[C@H](CO)NC(=O)[C@H](CO)NC(=O)[C@@H]1CCCN1C(=O)CNC(=O)CNC(=O)[C@H](CCC(=O)O)NC(=O)[C@@H](NC(=O)[C@H](CC(C)C)NC(=O)[C@](C)(Cc1ccc(O)cc1)NC(=O)[C@@H](CCC(=O)O)NC(=O)[C@@H](NC(=O)[C@H](Cc1ccccc1)NC(=O)[C@H](CCC(=O)O)NC(=O)C(C)(C)NC(=O)[C@H](CCC(N)=O)NC(=O)[C@H](C)NC(=O)[C@H](CCCCNC(=O)COCCOCCNC(=O)COCCOCCNC(=O)CC[C@H](NC(=O)CCCCCCCCCCCCCCC)C(=O)O)NC(=O)[C@H](CCCN)NC(=O)[C@H](CC(=O)O)NC(=O)[C@H](CC(C)C)NC(=O)[C@](C)(CC(C)C)NC(=O)[C@@H](NC(=O)[C@H](CO)NC(=O)[C@H](Cc1ccncc1)NC(=O)[C@H](CC(=O)O)NC(=O)[C@H](CO)NC(=O)[C@@H](NC(=O)[C@](C)(Cc1ccccc1F)NC(=O)[C@@H](NC(=O)CNC(=O)[C@H](CCC(=O)O)NC(=O)C(C)(C)NC(=O)[C@@H](N)Cc1ccc(O)cc1)[C@@H](C)O)[C@@H](C)O)[C@@H](C)CC)[C@@H](C)CC)[C@@H](C)CC)C(N)=O)C(=O)O` [Example 25], in test [1] (setting [8]), the Ki came to 0.0293 nM. Further, the EC50 on hGIPR (0.1% bovine casein and 1.0% human serum albumin, 37° C., geometric mean, read-out: hGIPR EC50, nM (SEM, n)) was 0.274 nM; on hGCGR (0.1% bovine casein and 1.0% human serum albumin, 37° C., geometric mean, read-out: hGCGR EC50, nM (SEM, n)), above 9950 nM; at hGCGR (cAMP, incubated at 37° C., 0.1% bovine casein (no human serum albumin), geometric mean, read-out: hGCGR EC50, nM (SEM, n)), above 9950 nM; on hGLP-1R (0.1% bovine casein and 1.0% human serum albumin, geometric mean, read-out: hGLP-1R EC50, nM (SEM, n)), 1.11 nM. The Emax on hGIPR (HEK293, 0.1% bovine casein and 1.0% human serum albumin, 37° C., read-out: hGIPR Emax, % ± SEM) was 94.3 ± 1.73%.

In turn, `CC[C@H](C)[C@H](NC(=O)[C@H](CCCN)NC(=O)[C@H](CC(=O)O)NC(=O)[C@H](CC(C)C)NC(=O)[C@](C)(CC(C)C)NC(=O)[C@@H](NC(=O)C(C)(C)NC(=O)[C@H](Cc1ccc(O)cc1)NC(=O)[C@H](CC(=O)O)NC(=O)[C@H](CO)NC(=O)[C@@H](NC(=O)[C@](C)(Cc1ccccc1F)NC(=O)[C@@H](NC(=O)CNC(=O)[C@H](CCC(=O)O)NC(=O)C(C)(C)NC(=O)[C@@H](N)Cc1ccc(O)cc1)[C@@H](C)O)[C@@H](C)O)[C@@H](C)CC)C(=O)N[C@@H](C)C(=O)N[C@@H](CCC(N)=O)C(=O)NC(C)(C)C(=O)N[C@@H](CCCN)C(=O)N[C@@H](Cc1ccccc1)C(=O)N[C@H](C(=O)N[C@@H](CCCCNC(=O)COCCOCCNC(=O)COCCOCCNC(=O)COCCOCCNC(=O)CC[C@H](NC(=O)CCCCCCCCCOc1ccc(C(=O)O)cc1)C(=O)O)C(=O)N[C@@](C)(Cc1ccc(O)cc1)C(=O)N[C@@H](CC(C)C)C(=O)N[C@H](C(=O)N[C@@H](CCCCNC(=O)COCCOCCNC(=O)COCCOCCNC(=O)COCCOCCNC(=O)CC[C@H](NC(=O)CCCCCCCCCOc1ccc(C(=O)O)cc1)C(=O)O)C(=O)NCC(=O)NCC(=O)N1CCC[C@H]1C(=O)N[C@@H](CO)C(=O)N[C@@H](CO)C(=O)NCC(=O)N[C@@H](C)C(=O)N1CCC[C@H]1C(=O)N1CCC[C@H]1C(=O)N1CCC[C@H]1C(=O)N[C@@H](CO)C(N)=O)[C@@H](C)CC)[C@@H](C)CC` [Example 481] registered a Ki in test [1] of 0.0266 nM. Also, the Emax at hGIPR (setting [2]) came out at 82.7%; at hGIPR (HEK293, read-out: hGIPR Emax, % ± SEM, cAMP, 37° C., 0.1% bovine casein, arithmetic mean), 97.9%; at hGLP-1R (HEK293, read-out: hGLP-1R Emax, % ± SEM, cAMP, 37° C., 0.1% bovine casein and 1.0% human serum albumin), 112%; at hGLP-1R (setting [6]), 111%. For the same compound, the EC50 on hGIPR (setting [3]) was 0.0181 nM; at hGCGR (setting [4]), above 9950 nM; at hGCGR (setting [5]), above 9950 nM; at hGLP-1R (setting [7]), 0.279 nM; on hGLP-1R (hGLP-1R EC50, nM (SEM, n), cAMP, 0.1% bovine casein and 1.0% human serum albumin, geometric mean (SEM, n)), 6.16 nM.
